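Values below derive from 48-hour exposures of cells grown in 96-well plates, with endpoints linearly interpolated between the two concentrations bracketing the appropriate inhibition level. GI50: concentration for 50% inhibition of growth.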 Calls of active or inactive are those of the source. Rule as the data show it: active = GI50 up to about 1.1 µM and inactive = higher.
What was measured:
Assay in all cases: growth of human tumour cells (NCI), 48 h
DU-145 = test system: DU-145
RPMI-8226 = test system: RPMI-8226
HCC 2998 = test system: HCC 2998
BT-549 = test system: BT-549
SK-OV-3 = test system: SK-OV-3
ACHN = test system: ACHN
Hs-578T = test system: Hs-578T
COLO 205 = test system: COLO 205
Malme-3M = test system: Malme-3M
TK-10 = test system: TK-10
HCT-116 = test system: HCT-116
HT-29 = test system: HT-29
NCI-H226 = test system: NCI-H226
SNB-19 = test system: SNB-19
CAKI-1 = test system: CAKI-1
SK-MEL-5 = test system: SK-MEL-5
LOX IMVI = test system: LOX IMVI
UACC-62 = test system: UACC-62
HOP-92 = test system: HOP-92
MOLT-4 = test system: MOLT-4
OVCAR-5 = test system: OVCAR-5
CCRF-CEM = test system: CCRF-CEM
UO-31 = test system: UO-31
OVCAR-8 = test system: OVCAR-8
A549 = test system: A549
NCI-H23 = test system: NCI-H23
NCI/ADR-RES = test system: NCI/ADR-RES
PC-3 = test system: PC-3
HCT-15 = test system: HCT-15
SK-MEL-28 = test system: SK-MEL-28
NCI-H522 = test system: NCI-H522
SNB-75 = test system: SNB-75
SF-295 = test system: SF-295
T47D = test system: T47D
SR = test system: SR
KM12 = test system: KM12
IGROV-1 = test system: IGROV-1
MDA-MB-435 = test system: MDA-MB-435
EKVX = test system: EKVX
MDA-N = test system: MDA-N
SW-620 = test system: SW-620
M14 = test system: M14
SF-539 = test system: SF-539
A498 = test system: A498
SK-MEL-2 = test system: SK-MEL-2
SN12C = test system: SN12C
HL-60 = test system: HL-60
MCF7 = test system: MCF7
RXF 393 = test system: RXF 393
K562 = test system: K562
UACC-257 = test system: UACC-257
U-251 = test system: U-251
OVCAR-3 = test system: OVCAR-3
HOP-62 = test system: HOP-62
MDA-MB-231 = test system: MDA-MB-231
786-0 = test system: 786-0
SF-268 = test system: SF-268
OVCAR-4 = test system: OVCAR-4
NCI-H460 = test system: NCI-H460

## N=C(N)NC(=N)Nc1ccc(S(N)(=O)=O)cc1
DU-145
  GI50: > 100 µM (inactive)
RPMI-8226
  GI50: > 100 µM (inactive)
HCC 2998
  GI50: 6.27 µM (inactive)
BT-549
  GI50: > 100 µM (inactive)
SK-OV-3
  GI50: > 100 µM (inactive)
ACHN
  GI50: > 100 µM (inactive)
Hs-578T
  GI50: > 100 µM (inactive)
COLO 205
  GI50: > 100 µM (inactive)
Malme-3M
  GI50: > 100 µM (inactive)
TK-10
  GI50: > 100 µM (inactive)
HCT-116
  GI50: > 100 µM (inactive)
HT-29
  GI50: > 100 µM (inactive)
NCI-H226
  GI50: > 100 µM (inactive)
SNB-19
  GI50: > 100 µM (inactive)
CAKI-1
  GI50: > 100 µM (inactive)
SK-MEL-5
  GI50: > 100 µM (inactive)
LOX IMVI
  GI50: > 100 µM (inactive)
UACC-62
  GI50: > 100 µM (inactive)
HOP-92
  GI50: > 100 µM (inactive)
MOLT-4
  GI50: > 100 µM (inactive)
OVCAR-5
  GI50: > 100 µM (inactive)
CCRF-CEM
  GI50: > 100 µM (inactive)
UO-31
  GI50: > 100 µM (inactive)
OVCAR-8
  GI50: > 100 µM (inactive)
A549
  GI50: > 100 µM (inactive)
NCI-H23
  GI50: > 100 µM (inactive)
NCI/ADR-RES
  GI50: > 100 µM (inactive)
PC-3
  GI50: > 100 µM (inactive)
HCT-15
  GI50: > 100 µM
SK-MEL-28
  GI50: > 100 µM (inactive)
NCI-H522
  GI50: > 100 µM (inactive)
SNB-75
  GI50: > 100 µM (inactive)
SF-295
  GI50: > 100 µM (inactive)
T47D
  GI50: > 100 µM (inactive)
SR
  GI50: > 100 µM (inactive)
KM12
  GI50: > 100 µM (inactive)
IGROV-1
  GI50: > 100 µM (inactive)
MDA-MB-435
  GI50: > 100 µM (inactive)
EKVX
  GI50: > 100 µM (inactive)
MDA-N
  GI50: > 100 µM (inactive)
SW-620
  GI50: > 100 µM (inactive)
M14
  GI50: > 100 µM (inactive)
SF-539
  GI50: > 100 µM (inactive)
A498
  GI50: > 100 µM (inactive)
SK-MEL-2
  GI50: > 100 µM (inactive)
SN12C
  GI50: > 100 µM (inactive)
HL-60
  GI50: > 100 µM (inactive)
MCF7
  GI50: > 100 µM (inactive)
RXF 393
  GI50: > 100 µM (inactive)
K562
  GI50: > 100 µM (inactive)
UACC-257
  GI50: > 100 µM (inactive)
U-251
  GI50: > 100 µM (inactive)
OVCAR-3
  GI50: > 100 µM (inactive)
HOP-62
  GI50: > 100 µM (inactive)
MDA-MB-231
  GI50: > 100 µM (inactive)
786-0
  GI50: > 100 µM (inactive)
SF-268
  GI50: > 100 µM (inactive)
OVCAR-4
  GI50: > 100 µM (inactive)
NCI-H460
  GI50: > 100 µM (inactive)

## CCC(C)OC(=O)/C(Br)=C1/OC(=O)c2ccccc2-c2ccccc21 (stereo not drawn)
DU-145
  GI50: > 100 µM (inactive)
RPMI-8226
  GI50: 22.3 µM (inactive)
HCC 2998
  GI50: 16.9 µM (inactive)
BT-549
  GI50: 18.8 µM (inactive)
SK-OV-3
  GI50: 45.6 µM (inactive)
ACHN
  GI50: 40.1 µM (inactive)
Hs-578T
  GI50: 45.4 µM (inactive)
COLO 205
  GI50: 18.3 µM (inactive)
Malme-3M
  GI50: 29.7 µM (inactive)
TK-10
  GI50: 19.4 µM (inactive)
HCT-116
  GI50: 17.6 µM (inactive)
HT-29
  GI50: 23.2 µM (inactive)
NCI-H226
  GI50: 55.2 µM (inactive)
SNB-19
  GI50: 49.5 µM (inactive)
CAKI-1
  GI50: 43.4 µM (inactive)
SK-MEL-5
  GI50: 21.2 µM (inactive)
LOX IMVI
  GI50: 18.2 µM (inactive)
UACC-62
  GI50: 19.4 µM (inactive)
HOP-92
  GI50: 27.3 µM (inactive)
MOLT-4
  GI50: 6.85 µM (inactive)
OVCAR-5
  GI50: 80 µM (inactive)
CCRF-CEM
  GI50: 4.78 µM (inactive)
UO-31
  GI50: 25.2 µM (inactive)
OVCAR-8
  GI50: 37.6 µM (inactive)
A549
  GI50: 36.6 µM (inactive)
NCI-H23
  GI50: 50 µM (inactive)
NCI/ADR-RES
  GI50: 20.4 µM (inactive)
PC-3
  GI50: 31.8 µM (inactive)
HCT-15
  GI50: 18 µM
SK-MEL-28
  GI50: 30.1 µM (inactive)
NCI-H522
  GI50: 18.7 µM (inactive)
SNB-75
  GI50: 31.6 µM (inactive)
SF-295
  GI50: 35.6 µM (inactive)
T47D
  GI50: 58.2 µM (inactive)
SR
  GI50: > 10 µM (inactive)
KM12
  GI50: 23.8 µM (inactive)
IGROV-1
  GI50: > 10 µM (inactive)
MDA-MB-435
  GI50: 26.9 µM (inactive)
EKVX
  GI50: > 100 µM (inactive)
MDA-N
  GI50: 32.6 µM (inactive)
SW-620
  GI50: 18.1 µM (inactive)
M14
  GI50: 32.1 µM (inactive)
SF-539
  GI50: 24 µM (inactive)
A498
  GI50: 40.7 µM (inactive)
SK-MEL-2
  GI50: 24.2 µM (inactive)
SN12C
  GI50: 34.2 µM (inactive)
HL-60
  GI50: > 100 µM (inactive)
MCF7
  GI50: 41 µM (inactive)
RXF 393
  GI50: 9.75 µM (inactive)
K562
  GI50: 4.42 µM (inactive)
UACC-257
  GI50: 88.7 µM (inactive)
U-251
  GI50: > 10 µM (inactive)
OVCAR-3
  GI50: 27.4 µM (inactive)
HOP-62
  GI50: 15.9 µM (inactive)
MDA-MB-231
  GI50: > 10 µM (inactive)
786-0
  GI50: 48.6 µM (inactive)
SF-268
  GI50: 56.4 µM (inactive)
OVCAR-4
  GI50: 62.5 µM (inactive)
NCI-H460
  GI50: 26.2 µM (inactive)

From ChEMBL document CHEMBL1201862, “PubChem BioAssay data set” (2004)
